ChEMBL document CHEMBL3091358, “Structures of human acetylcholinesterase bound to dihydrotanshinone I and territrem B show peripheral site flexibility” (ACS Med Chem Lett, 2013)

Legend:
[1] = molecular target: T1, Acetylcholinesterase (Homo sapiens, UniProt P22303); assay: Inhibition of human acetylcholinesterase
[2] = molecular target: T1, Acetylcholinesterase; assay: Inhibition of acetylcholinesterase (unknown origin)

T1 sequence (P22303 whole entry): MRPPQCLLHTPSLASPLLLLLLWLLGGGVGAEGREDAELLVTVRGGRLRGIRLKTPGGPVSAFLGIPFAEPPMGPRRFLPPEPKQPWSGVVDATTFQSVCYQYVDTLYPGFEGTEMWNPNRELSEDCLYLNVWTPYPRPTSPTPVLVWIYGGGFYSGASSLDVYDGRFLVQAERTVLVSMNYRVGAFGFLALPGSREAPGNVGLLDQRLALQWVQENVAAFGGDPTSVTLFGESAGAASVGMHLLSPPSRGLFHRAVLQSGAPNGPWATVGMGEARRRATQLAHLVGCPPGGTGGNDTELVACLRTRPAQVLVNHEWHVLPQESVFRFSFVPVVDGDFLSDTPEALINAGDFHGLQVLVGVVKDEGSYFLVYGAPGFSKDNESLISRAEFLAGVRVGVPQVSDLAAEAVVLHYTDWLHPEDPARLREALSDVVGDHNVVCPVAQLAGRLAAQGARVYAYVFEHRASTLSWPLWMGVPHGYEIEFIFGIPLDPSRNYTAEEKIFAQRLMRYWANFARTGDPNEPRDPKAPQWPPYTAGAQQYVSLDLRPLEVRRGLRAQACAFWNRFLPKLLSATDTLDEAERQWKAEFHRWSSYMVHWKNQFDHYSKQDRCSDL

| SMILES | Ki [1] [nM] | IC50 [2] [µM] |
| --- | --- | --- |
| Cc1cccc2c3c(ccc12)C1=C(C(=O)C3=O)[C@@H](C)CO1 [DIHYDROTANSHINONE I] | 600 | 1 |
| Cc1coc2c1C(=O)C(=O)c1c-2ccc2c1CCCC2(C)C [TANSHINONE IIA] |  | > 140 |
| Cc1coc2c1C(=O)C(=O)c1c-2ccc2c(C)cccc12 [TANSHINONE I] |  | > 50 |
